Data: patent US9938279B2, “Method for treating disease or condition susceptible to amelioration by AMPK activators and compounds of formula which are useful to activate AMP-activated protein kinase (AMPK)” (ENERGENESIS BIOMEDICAL CO., LTD, priority 2013, dated 2018)

How the values were obtained:
AMPK [1] = assay: AMPK activation assay (western blot phospho-AMPK Thr172) in C2C12; type: cell-based, mouse; settings: C2C12 cells, 30 min treatment
Procedure: (§1) Effects of compounds on AMPK activation were analyzed in mouse muscle cell C2C12, mouse fibroblast 3T3-L1 and human hepatocyte Hep G2. Those cell lines were cultured in high-glucose Dulbecco's modified Eagle's medium (DMEM) containing 10% fetal bovine serum (FBS), 4 mM L-glutamine, 2 mM sodium pyruvate and 1% penicillin/streptomycin (Invitrogen GibcoBRL, Carlsbad, Calif., USA) at 37° C. under 5% CO2. Cells were plated at 3×10^5 per well (6-well plate). 24 h after plating, cells were treated with indicated compounds for 30 min followed by cell lysis and western blot analysis. Equal amount of protein were separated by SDS-PAGE and then electroblotted on to PVDF membranes. Membranes were blocked with 3% BSA in PBS for 60 min and incubated with anti-phospho-AMPK (Thr172) antibody (1:2,000, Cell signaling), anti-AMPK antibody (1:2,000, Cell signaling), anti-Glut4 antibody (1:1,000, Millipore) or anti-actin antibody (1:5,000; Chemicon International) at 4° C. overnight followed by the corresponding secondary antibody for 1 h at room temperature (RT). Immunoreactive bands were detected by enhanced chemiluminescence (ECL; Pierce, Rockford, Ill., USA) and recorded using Kodakfilm (Rochester, N.Y., USA). The detected signals were scanned and then quantified by using TotalLab Quant software (TotalLab).

AMPK [2] = assay: AMPK activation assay (western blot phospho-AMPK Thr172) in 3T3-L1; type: cell-based, mouse; settings: 3T3-L1 cells, 30 min treatment
Procedure: as §1

AMPK [3] = assay: AMPK activation assay (western blot phospho-AMPK Thr172) in Hep G2; type: cell-based, human; settings: Hep G2 cells, 30 min treatment
Procedure: as §1

Compound	AMPK activation (% to control) C2C12 (AMPK [1]; 1 microM)	AMPK activation (% to control) C2C12 (AMPK [1]; 10 microM)	AMPK activation (% to control) C2C12 (AMPK [1]; 100 microM)	AMPK activation (% to control) C2C12 (AMPK [1]; 200 microM)	AMPK activation (% to control) 3T3-L1 (AMPK [2]; 1 microM)	AMPK activation (% to control) 3T3-L1 (AMPK [2]; 10 microM)	AMPK activation (% to control) 3T3-L1 (AMPK [2]; 100 microM)	AMPK activation (% to control) 3T3-L1 (AMPK [2]; 200 microM)	AMPK activation (% to control) Hep G2 (AMPK [3]; 1 microM)	AMPK activation (% to control) Hep G2 (AMPK [3]; 10 microM)	AMPK activation (% to control) Hep G2 (AMPK [3]; 100 microM)	AMPK activation (% to control) Hep G2 (AMPK [3]; 200 microM)
Oc1nc(S)c2[nH]cnc2n1 [Example 2-hydroxy-6-mercaptopurine, 2-hydroxy-6-mercaptopurine]	104 % to control	109 % to control	198 % to control	251 % to control	118 % to control	122 % to control	210 % to control	277 % to control	105 % to control	108 % to control	204 % to control	222 % to control
CNc1nc(O)nc2nc[nH]c12 [Example 2-hydroxy-6-methylaminopurine, 2-hydroxy-6-methylaminopurine]	118 % to control	151 % to control	255 % to control	361 % to control	113 % to control	162 % to control	271 % to control	382 % to control	115 % to control	148 % to control	266 % to control	354 % to control
CCCNc1nc(O)nc2nc[nH]c12 [Example 2-hydroxy-6-propylaminopurine, 2-hydroxy-6-propylaminopurine]	114 % to control	122 % to control	201 % to control	324 % to control	109 % to control	129 % to control	233 % to control	361 % to control	110 % to control	133 % to control	270 % to control	339 % to control
Nc1nc(O)nc2nc[nH]c12 [Example 2-hydroxyadenine, 2-hydroxyadenine]	111 % to control	166 % to control	275 % to control	315 % to control	117 % to control	171 % to control	264 % to control	351 % to control	118 % to control	143 % to control	220 % to control	338 % to control
